Structures can show the parent of a compound that is named as a salt. Where two headings read alike, the source gives them in different places.
Tests used:
[1] = Solubility tests of ropivacaine free base and corresponding salts; format: physicochemical
Text: If a drug dissolved completely, addition of this drug was continued until saturation.

[2] = Formulation experiment for sustained-release formulation delivery system; format: physicochemical; conditions: for Solubility: in ethanol, benzyl alcohol, benzyl benzoate, and ethyl lactate
Text: Detailed experimental procedures were similar to those in Experimental Example 2. As shown in the experimental results, part of the drug delivery system combinations that may be used in the formula of the sustained-release formulation delivery system is as follows: […]

[3] = Structural stability of ropivacaine sustained-release formulations (content determination); format: physicochemical; conditions: content determination after 30 days
[4] = In vitro dissolution stability of the drug formulations; format: physicochemical; conditions: compared with ropivacaine free base
[5] = cited from earlier work
plasma proteins = conditions: concentration-dependent; cited from earlier work
patients = conditions: cited from earlier work
[6] = Compound compositions: dezocine and parecoxib in the drug delivery systems; format: physicochemical; conditions: prescribed compositions of Table IV; 25° C. and 4° C., about 24 h
[7] = Verification of the solubility of various local anesthetics in the sustained-release drug delivery system; format: physicochemical; conditions: 4° C., 24 hours, 15-20 mg/ml
Procedure: The 12 local anesthetics were each added into the selected drug delivery systems, and the dissolution process of the drugs was observed (norm: 15-20 mg/ml, observed at 25° C. for 24 hours with recordation; or observed at 4° C. for 24 hours with recordation).

[8] = in glyceryl monoacetate, 25° C.
[9] = in tetrahydrofurfuryl polyethylene glycol ether, 25° C.

## CCCN1CCCC[C@H]1C(=O)Nc1c(C)cccc1C [Ropivacaine free base]
[1]; in anhydrous ethanol, 25° C.
  Solubility: 155 mg/mL
[1]; in anhydrous ethanol, 25° C., listed as ropivacaine free base
  Solubility: exceeding 150 mg/ml
[1]; in benzyl alcohol, 25° C.
  Solubility: 225 mg/mL
[1]; in benzyl alcohol, 25° C., listed as ropivacaine free base
  Solubility: exceeding 150 mg/ml
[1]; in benzyl benzoate, 25° C.
  Solubility: 70 mg/mL
[1]; in castor oil, 25° C.
  Solubility: 17 mg/mL
[1]; in corn oil, 25° C.
  Solubility: 9.4 mg/mL
[1]; in ethyl lactate, 25° C.
  Solubility: 80 mg/mL
[1]; in ethyl oleate, 25° C.
  Solubility: 14.9 mg/mL
[1]; [8]
  Solubility: 18 mg/mL
[1]; in olive oil, 25° C.
  Solubility: 9.8 mg/mL
[1]; in sesame oil, 25° C.
  Solubility: 11.7 mg/mL
[1]; in soybean oil, 25° C.
  Solubility: 9.6 mg/mL
[1]; [9]
  Solubility: 39.6 mg/mL
[2]
  solubility in mixed solvent: increased solubility
[3]
  structural stability in various prescribed compositions: structurally stable and did not degrade

## CCCN1CCCC[C@H]1C(=O)Nc1c(C)cccc1C [Ropivacaine hydrochloride]
[1]; anhydrous ethanol, 25 °C, organic solvent or mixture, thermodynamic from solid, in anhydrous ethanol, read-out: Solubility
  Solubility: 95 mg/mL
[1]; benzyl alcohol, 25 °C, organic solvent or mixture, thermodynamic from solid, in benzyl alcohol, read-out: Solubility
  Solubility: > 100 mg/mL
[1]; benzyl benzoate, 25 °C, organic solvent or mixture, thermodynamic from solid, in benzyl benzoate, read-out: Solubility
  Solubility: 2.5 mg/mL
[1]; castor oil, 25 °C, oil or lipid, thermodynamic from solid, in castor oil, read-out: Solubility
  Solubility: 1.7 mg/mL
[1]; corn oil, 25 °C, oil or lipid, thermodynamic from solid, in corn oil, read-out: Solubility
  Solubility: 2.5 mg/mL
[1]; ethyl lactate, 25 °C, organic solvent or mixture, thermodynamic from solid, in ethyl lactate, read-out: Solubility
  Solubility: 16.5 mg/mL
[1]; ethyl oleate, 25 °C, oil or lipid, thermodynamic from solid, in ethyl oleate, read-out: Solubility
  Solubility: 2.2 mg/mL
[1]; glyceryl monoacetate, 25 °C, organic solvent or mixture, thermodynamic from solid, in glyceryl monoacetate, read-out: Solubility
  Solubility: 30 mg/mL
[1]; in benzyl alcohol, 25° C.
  Solubility: 140 mg/mL
[1]; olive oil, 25 °C, oil or lipid, thermodynamic from solid, in olive oil, read-out: Solubility
  Solubility: 1.7 mg/mL
[1]; sesame oil, 25 °C, oil or lipid, thermodynamic from solid, in sesame oil, read-out: Solubility
  Solubility: 2 mg/mL
[1]; soybean oil, 25 °C, oil or lipid, thermodynamic from solid, in soybean oil, read-out: Solubility
  Solubility: 2 mg/mL
[1]; tetrahydrofurfuryl polyethylene glycol ether, 25 °C, organic solvent or mixture, thermodynamic from solid, in tetrahydrofurfuryl polyethylene glycol ether, read-out: Solubility
  Solubility: 9 mg/mL
[2]; mixture of benzyl benzoate with one of ethanol and benzyl alcohol
  solubility in mixed solvent: increased solubility

## CCCN1CCCC[C@H]1C(=O)Nc1c(C)cccc1C.CS(=O)(=O)O [Ropivacaine methansulfonate]
[1]; in anhydrous ethanol, 25° C.
  Solubility: 320 mg/mL
[1]; in anhydrous ethanol, 25° C., listed as ropivacaine methansulfonate
  Solubility: exceeding 190 mg/ml
[1]; in benzyl alcohol, 25° C.
  Solubility: 550 mg/mL
[1]; in benzyl alcohol, 25° C., listed as ropivacaine methansulfonate
  Solubility: exceeding 190 mg/ml
[1]; in benzyl benzoate, 25° C.
  Solubility: 2 mg/mL
[1]; in castor oil, 25° C.
  Solubility: 2 mg/mL
[1]; in corn oil, 25° C.
  Solubility: 1.7 mg/mL
[1]; in ethyl lactate, 25° C.
  Solubility: 198 mg/mL
[1]; in ethyl lactate, 25° C., listed as ropivacaine methansulfonate
  Solubility: exceeding 190 mg/ml
[1]; in ethyl oleate, 25° C.
  Solubility: 2 mg/mL
[1]; [8]
  Solubility: 50 mg/mL
[1]; in olive oil, 25° C.
  Solubility: 2 mg/mL
[1]; in sesame oil, 25° C.
  Solubility: 1.7 mg/mL
[1]; in soybean oil, 25° C.
  Solubility: 2.5 mg/mL
[1]; [9]
  Solubility: 13.2 mg/mL
[2]
  solubility in mixed solvent: increased solubility
[4]
  solubility in various prescribed compositions: slightly poorer than that of ropivacaine free base

## CCCN1CCCC[C@H]1C(=O)Nc1c(C)cccc1C [Ropivacaine, 1-propy 1-2,6-pipeco loxylidide laevo isomer]
[5]; epidural
  epidural absorption, half-time of fast phase: 14 min
  epidural absorption, half-time of slow phase: 4 h
[5]; in vivo
  steady distribution volume: 47 L
Plasma proteins
  association with plasma proteins: 94%
patients; 0.1% ropivacaine versus 0.1% bupivacaine, elderly patients
  cardiac toxicity and safety: relatively lower cardiac toxicity and higher safety in use
patients; 0.1% ropivacaine, elderly patients after lower limb surgeries (Zonglin YANG et al.)
  analgesic effect of continuous epidural infusion: comparable to that with 0.1% bupivacaine
patients; 0.375% ropivacaine versus 0.25% bupivacaine (Qihong ZHAO et al.)
  transaxillary brachial plexus block: faster onset, better efficacy, and fewer adverse effects as compared to 0.25% bupivacaine
patients; human, in vivo
  local infiltration anesthetic analgesia: substantial and lasting analgesic effect with few adverse reactions
patients; human, one clinical injection
  analgesic duration: about 8 hours
patients; versus bupivacaine (Shunfu CHEN)
  gynecologic post-operative patient-controlled analgesia: more suitable for patient-controlled analgesic local anesthesia in gynecologic post-operative patients than bupivacaine

## C[C@@]12CCCCC[C@@H](Cc3ccc(O)cc31)[C@@H]2N [dezocine]
[2]
  Solubility: good solubility
[6]
  Solubility: > 30 mg/mL

## CCC(=O)NS(=O)(=O)c1ccc(-c2c(-c3ccccc3)noc2C)cc1 [parecoxib]
[2]
  Solubility: good solubility
[6]
  Solubility: > 20 mg/mL

## CCN(CC)CCOC(=O)c1ccc(N)cc1 [procaine]
[7]
  solubility in the ethyl oleate/soybean oil drug delivery system: slightly precipitated

## CCCCNc1ccc(C(=O)OCCN(C)C)cc1 [tetracaine]
[7]
  solubility in the ethyl oleate/soybean oil drug delivery system: slightly precipitated

— US11364299B2, “Non-addictive analgesic sustained-release drug delivery system and preparation method thereof” (LIPONT PHARMACEUTICALS INC., priority 2013, dated 2022)
